# Experimental data taken from patent EP3875077B1, “DOSAGE FORM PROVIDING PROLONGED RELEASE OF […] SALT” (Grünenthal GmbH, priority 2020, dated 2021).
# Structures can show the parent of a compound that is named as a salt. Where two headings read alike, the source gives them in different places.
# Experiment: thermodynamic solubility (saturation solubility) in various media, quantified by HPLC
# Assay type: physicochemical
# Conditions: for solubility thermodynamic at 24 h: thermodynamic from solid, read-out: thermodynamic solubility, assay expressed as base
# Protocol: The thermodynamic solubility of Tapentadol hydrochloride and of Tapentadol dihydrogenphosphate (mixed form, batch with fine particles) was determined as saturation solubility in various media at various pH values. The solutions were stirred for 24 hours at 25 °C and the pH values of the solutions at the start and at the end of the experiments were measured. The dissolved amount of Tapentadol was quantified by HPLC (free base of Tapentadol).
smiles,measurement,setting,value
"CC[C@@H](c1cccc(O)c1)[C@@H](C)CN(C)C [Tapentadol hydrochloride, (-)-(1R,2R)-3-(3-dimethylamino-1-ethyl-2-methyl-propyl)-phenol]","thermodynamic solubility, assay expressed as base","0.1 M HCl, 24 hours at 25 °C",31.2 g/100 mL
same,"thermodynamic solubility, assay expressed as base","0.15N NaOH, 24 hours at 25 °C",6.6 g/100 mL
same,solubility thermodynamic at 24 h,"acetate buffer pH 4.5, aqueous buffer, acetate pH 4.5, 24 hours at 25 °C",327 mg/mL
same,solubility thermodynamic at 24 h,"citrate buffer pH 6.8, aqueous buffer, citrate pH 6.8, 24 hours at 25 °C",318 mg/mL
same,solubility thermodynamic at 24 h,"citrate buffer pH 7.4, aqueous buffer, citrate pH 7.4, 24 hours at 25 °C",319 mg/mL
same,solubility thermodynamic at 24 h,"fassgf or other biorelevant, SIF sp pH 6.8, 24 hours at 25 °C",324 mg/mL
same,solubility thermodynamic at 24 h,"water, 24 hours at 25 °C",330 mg/mL
